Active and inactive are the calls of the source.
Columns and labels:
[1] = target: Tubulin alpha (Homo sapiens) (UniProt P0DPH7+P68366+Q71U36+P68363+Q9BQE3+Q6PEY2+A6NHL2+Q9NY65); assay: Binding affinity to alpha-tubulin in human DOHH-2 cells by MS analysis; type: cell-based
[2] = target: T1, Glutathione S-transferase omega-1 (Homo sapiens) (UniProt P78417); assay: Binding affinity to GSTO1 in human DOHH-2 cells by MS analysis; type: cell-based
T1 sequence (whole entry): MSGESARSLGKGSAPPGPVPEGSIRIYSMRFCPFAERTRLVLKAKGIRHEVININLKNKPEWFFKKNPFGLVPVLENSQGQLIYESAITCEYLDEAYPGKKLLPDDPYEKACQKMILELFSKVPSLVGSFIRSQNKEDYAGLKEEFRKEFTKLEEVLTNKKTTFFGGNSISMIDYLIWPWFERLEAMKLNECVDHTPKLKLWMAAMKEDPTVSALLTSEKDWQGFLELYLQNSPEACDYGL

[3] = target: T2, Protein disulfide-isomerase A3 (Homo sapiens) (UniProt P30101); assay: Binding affinity to PDIA3 in human DOHH-2 cells measured after 6 hrs by pull-down assay; type: cell-based; details: DDE = dose-dependent effect
T2 sequence (whole entry): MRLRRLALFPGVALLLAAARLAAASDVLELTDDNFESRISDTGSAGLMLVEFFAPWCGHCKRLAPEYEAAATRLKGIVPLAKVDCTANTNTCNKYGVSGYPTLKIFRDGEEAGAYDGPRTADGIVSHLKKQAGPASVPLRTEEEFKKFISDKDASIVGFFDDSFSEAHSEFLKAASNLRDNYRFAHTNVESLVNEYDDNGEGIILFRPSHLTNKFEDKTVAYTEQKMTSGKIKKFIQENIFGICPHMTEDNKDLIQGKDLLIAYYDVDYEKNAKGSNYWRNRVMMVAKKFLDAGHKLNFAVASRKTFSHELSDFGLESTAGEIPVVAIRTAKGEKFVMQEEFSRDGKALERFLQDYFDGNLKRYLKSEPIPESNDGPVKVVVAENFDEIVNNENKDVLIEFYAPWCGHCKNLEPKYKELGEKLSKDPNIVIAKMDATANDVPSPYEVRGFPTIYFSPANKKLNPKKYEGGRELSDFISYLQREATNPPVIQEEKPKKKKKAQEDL

DOHH-2 [4] = assay: Up regulation of HSP90alpha expression in human DOHH-2 cells at 8 uM measured after 4 to 24 hrs by Western blot analysis; type: functional, cell-based; details: time 4-24 hrs
[5] = target: T2, Protein disulfide-isomerase A3 (Homo sapiens); assay: Binding affinity to PDIA3 in human MDA-MB-453 cells measured after 6 hrs by pull-down assay; type: cell-based; details: dose <= 20.0 µM, DDE = dose-dependent effect
[6] = target: Glutathione S-transferase 3, mitochondrial (Homo sapiens) (UniProt O14880); assay: Binding affinity to MGST3 in human DOHH-2 cells measured after 6 hrs by pull-down assay; type: cell-based; details: DDE = dose-dependent effect
Sequence of Glutathione S-transferase 3, mitochondrial (Homo sapiens) (O14880 whole entry): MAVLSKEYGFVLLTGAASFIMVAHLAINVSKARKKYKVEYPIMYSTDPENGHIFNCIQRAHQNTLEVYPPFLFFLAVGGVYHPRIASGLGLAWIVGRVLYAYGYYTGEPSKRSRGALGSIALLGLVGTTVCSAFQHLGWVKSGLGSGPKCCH

DOHH-2 [7] = assay: Cytotoxicity against human DOHH-2 cells up to 20 uM measured after 24 hrs; type: functional, cell-based
[8] = target: Elongation factor 2 (Homo sapiens) (UniProt P13639); assay: Binding affinity to elongation factor 2 in human DOHH-2 cells measured after 6 hrs by pull-down assay; type: cell-based; details: DDE = dose-dependent effect
[9] = target: T1, Glutathione S-transferase omega-1 (Homo sapiens); assay: Binding affinity to GSTO1 in human MDA-MB-453 cells measured after 6 hrs by pull-down assay; type: cell-based; details: dose <= 20.0 µM, DDE = dose-dependent effect
Plastin-2 (Homo sapiens) [10] = target: T3, Plastin-2 (Homo sapiens) (UniProt P13796); assay: Binding affinity to plastin-2 in human DOHH-2 cells measured after 6 hrs by pull-down assay; type: cell-based; details: DDE = dose-dependent effect
T3 sequence (whole entry): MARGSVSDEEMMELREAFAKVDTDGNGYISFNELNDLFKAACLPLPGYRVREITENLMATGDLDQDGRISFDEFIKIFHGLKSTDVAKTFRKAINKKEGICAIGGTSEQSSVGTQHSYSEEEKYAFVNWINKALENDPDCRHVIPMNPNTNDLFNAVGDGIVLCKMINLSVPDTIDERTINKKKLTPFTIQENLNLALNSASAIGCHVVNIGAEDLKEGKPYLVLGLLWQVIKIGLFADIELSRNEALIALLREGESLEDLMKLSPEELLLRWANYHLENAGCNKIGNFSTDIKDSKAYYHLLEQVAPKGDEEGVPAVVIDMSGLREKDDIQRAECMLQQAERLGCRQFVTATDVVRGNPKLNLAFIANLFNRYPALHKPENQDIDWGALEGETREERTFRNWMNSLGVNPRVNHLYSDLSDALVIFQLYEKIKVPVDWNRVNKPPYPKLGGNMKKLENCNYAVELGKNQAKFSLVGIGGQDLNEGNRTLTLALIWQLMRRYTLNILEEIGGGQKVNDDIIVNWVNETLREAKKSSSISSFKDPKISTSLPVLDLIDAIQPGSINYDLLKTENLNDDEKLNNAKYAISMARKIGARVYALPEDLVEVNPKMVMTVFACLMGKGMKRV

Plastin-2 (Homo sapiens) [11] = target: T3, Plastin-2 (Homo sapiens); assay: Binding affinity to plastin-2 in human MDA-MB-453 cells measured after 6 hrs by pull-down assay; type: cell-based; details: dose <= 20.0 µM, DDE = dose-dependent effect
[12] = target: T4, Peroxiredoxin-6 (Homo sapiens) (UniProt P30041); assay: Binding affinity to PRDX6 in human DOHH-2 cells measured after 6 hrs by pull-down assay; type: cell-based; details: DDE = dose-dependent effect
T4 sequence (whole entry): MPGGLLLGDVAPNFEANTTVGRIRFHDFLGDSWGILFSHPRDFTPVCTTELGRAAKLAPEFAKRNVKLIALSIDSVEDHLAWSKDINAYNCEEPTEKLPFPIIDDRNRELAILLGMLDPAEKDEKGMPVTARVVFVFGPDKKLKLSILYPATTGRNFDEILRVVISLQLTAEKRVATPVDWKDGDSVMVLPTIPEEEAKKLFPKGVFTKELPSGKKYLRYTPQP

[13] = target: T5, Protein disulfide-isomerase A4 (Homo sapiens) (UniProt P13667); assay: Binding affinity to PDIA4 in human MDA-MB-453 cells measured after 6 hrs by pull-down assay; type: cell-based; details: dose <= 20.0 µM, DDE = dose-dependent effect
T5 sequence (whole entry): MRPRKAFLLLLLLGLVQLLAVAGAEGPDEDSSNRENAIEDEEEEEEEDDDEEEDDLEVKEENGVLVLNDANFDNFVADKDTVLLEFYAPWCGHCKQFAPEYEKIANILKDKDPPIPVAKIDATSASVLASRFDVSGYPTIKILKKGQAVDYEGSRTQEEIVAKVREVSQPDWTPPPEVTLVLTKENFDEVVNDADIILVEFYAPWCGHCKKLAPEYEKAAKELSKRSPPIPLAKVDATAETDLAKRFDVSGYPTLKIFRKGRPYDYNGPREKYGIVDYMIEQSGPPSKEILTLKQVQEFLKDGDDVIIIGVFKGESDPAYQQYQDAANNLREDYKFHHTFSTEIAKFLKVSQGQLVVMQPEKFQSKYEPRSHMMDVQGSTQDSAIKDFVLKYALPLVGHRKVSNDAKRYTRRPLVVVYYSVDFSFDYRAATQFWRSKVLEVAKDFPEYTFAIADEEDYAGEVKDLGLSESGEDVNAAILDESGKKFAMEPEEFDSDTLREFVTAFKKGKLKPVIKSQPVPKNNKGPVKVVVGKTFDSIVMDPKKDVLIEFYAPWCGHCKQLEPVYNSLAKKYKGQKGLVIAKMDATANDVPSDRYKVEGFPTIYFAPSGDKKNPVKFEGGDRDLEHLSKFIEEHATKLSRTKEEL

Measured: Activity

C#Cc1cccc(C#CS(N)(=O)=O)c1
active: [1] | [2] | [3] Dde | DOHH-2 [4] | [5] Dde | [6] Dde | DOHH-2 [7] | [8] Dde | [9] Dde | Plastin-2 (Homo sapiens) [10] Dde | Plastin-2 (Homo sapiens) [11] Dde | [12] Dde | [13] Dde

Reference: ChEMBL document CHEMBL5143564, “PES derivative PESA is a potent tool to globally profile cellular targets of PES” (Bioorg Med Chem Lett, 2022)
